# Source: a melting point compilation (Tetko et al.; mined from patent text by program, amines drawn as free bases though some values may be those of a salt)
row,melting point,Structure (SMILES)
1,67 °C,COc1ccc(C2CCc3cc(OC)ccc3C2CCCn2ccnc2)cc1 (stereo unspecified)
2,178 to 179 °C,CC(C)(O)CNC(=O)CC1CN=C(c2cc3cc(Oc4ccc(S(C)(=O)=O)nc4)ccc3[nH]2)S1 (stereo unspecified)
3,173 to 174 °C,CC1=C(C(=O)OC(C)(C)C)C(c2cc(Br)ccc2F)C(C(=O)OC(C)(C)C)=C(C)N1
4,72 to 78 °C,Cc1nnc(COc2ccc(OCC(C)Oc3ccccn3)cc2)s1 (stereo unspecified)
5,200 to 202 °C,CC(=O)N[C@@H](C)C(=O)NCCc1ccc(O)c(O)c1
6,92 to 93 °C,CC=CC(=O)N(CCCC(=O)O)C(C)(C)CC(C)(C)C
7,121 to 123 °C,CCOC(=O)Nc1cc([N+](=O)[O-])cc(CC)c1C(=O)O
8,280 to 285 °C,Cc1c(C)c(Cl)c2[nH]c(Cl)nc2c1Cl
9,73 to 75 °C,CCCCCCCCCCCCOc1ccc(C2SCCCS2)cc1OCCCCCCCCCCCC
10,152 °C,COC(=O)CNC(=O)c1cc2c(C(=O)CN(Cc3ccccc3)C(C)(C)C)ccc(OCc3ccccc3)c2[nH]1
11,80 to 95 °C,CN1CCCC1COc1ccc(-c2cccc(N)n2)c2ccccc12 (stereo unspecified)
12,108 to 111 °C,Cc1nc2cc(NCC(=O)C(C)(C)C)ccc2s1
13,181 to 183 °C,CCN(C)c1nc2cc(NC(=O)OC(C)(C)C)ccn2n1
14,43 to 45 °C,CCn1ncc2c(Cl)cc(-c3ccccc3)nc21
15,154 to 156 °C,Cc1cc2occ(C=O)c(=O)c2cc1C
16,237 to 238 °C,CCC12CCC(=O)C=C1c1c(cc(OCC(=O)O)c(Cl)c1Cl)C2 (stereo unspecified)
17,266 to 268 °C,O=C1Nc2cc(C(F)(F)F)ccc2C1c1cc(Cl)ccc1O (stereo unspecified)
18,60 to 62 °C,CCON=C(CC)C1=C(OC(=O)c2ccc(Cl)cc2)CC(C)(C)CC1=O
19,130 to 132 °C,CNC(=O)N1CC(Oc2ccccc2Cl)C1
20,73 °C,CCOC(=O)C(CC)Oc1ccc2c(-c3ccc(Cl)cc3)noc2c1 (stereo unspecified)
21,195 to 197 °C,CCOC(=O)c1cccc(NC(=O)N2CCc3cc(SC)c(C(F)(F)F)cc32)c1
22,213 to 214 °C,COc1ccc2c(c1)sc1nc(Nc3ccccc3)nc(=Nc3ccccc3)n12
23,233 to 235 °C,CC(C)c1[nH]n(-c2c(Cl)cc(Cl)cc2Cl)c2nc(Cc3ccc(N=C=O)cc3)nc(=O)c1-2
24,140 °C,CCOC(=O)c1[nH]cc2c1NC1=C(C(=O)CCC1)C2c1ccc(Sc2nc3cc(OC)ccc3[nH]2)o1 (stereo unspecified)

row,melting point,Structure (SMILES)
1,134 to 137 °C,CN(C)C(=O)C(Nc1ccccc1)c1ccccc1 (stereo unspecified)
2,172 °C,Cc1cccc(C)c1NC(=O)CN1CCNCC1CC(N)=O (stereo unspecified)
3,165 to 166 °C,CC(C)(C)OC(=O)[C@H](COC(=O)N(N)c1ccc(CC(=O)O)cc1)C(=O)OC(c1ccccc1)c1ccccc1
4,99 to 100 °C,CCn1cc(CC(=O)O)c(OCCCc2cn(-c3ccc(C(F)(F)F)cn3)nc2C(C)C)n1
5,218 °C,O=C(CCN1CCNCC1)Nc1ccc2c(c1)C(=O)c1cc(NC(=O)CCN3CCNCC3)ccc1C2=O
6,119 to 121 °C,Cc1cccc(-c2n[nH]cc2-c2ccc(F)c(-c3ccc(S(N)(=O)=O)c(F)c3)c2)n1
7,149 to 151 °C,O=S1(=O)NCN(C2CCCCCC2)c2cc(Cl)ccc21
8,105 °C,Cc1cc(N(C)C)cc(C)c1C1OC(C)(C)N=C1c1ccccc1 (stereo unspecified)
9,154 to 155 °C,COC(=O)c1cc(-c2ccc(S(C)(=O)=O)cc2)n(-c2ccc(F)cc2)c1C
10,151 to 152 °C,Cc1c(Cc2cccc(C(F)(F)F)c2)sc2c(-c3cc(F)cc(C(=O)NCCO)c3)cccc12
11,89 to 93 °C,CN(C)C(=S)Oc1ccc(CCCCN)cc1
12,168 °C,CCOC(=O)C(=O)Nc1nccc2snc(NC(=O)C(=O)OCC)c12
13,60 to 61 °C,Fc1ccc(SC(F)(F)C(F)(F)C(F)(F)C(F)(F)C(F)(F)C(F)(F)C(F)(F)C(F)(F)Sc2ccc(F)cc2)cc1
14,148 to 151 °C,CCOC(=O)C(C(=O)OCC)C(N)c1ccc([N+](=O)[O-])cc1C(N)C(C(=O)OCC)C(=O)OCC (stereo unspecified)
15,186 to 187 °C,NS(=O)(=O)CCCNc1nc(Cl)ncc1Cl
16,275 to 277 °C,COc1cc(OC)c2c(=O)[nH]c(-c3ccc(OCC(=O)O)c(OC)c3)nc2c1
17,> 200 °C,O=C(O)C1CC(=C2CCN(c3ccccc3)C2=O)c2ccc(Cl)cc2N1 (stereo unspecified)
18,154 to 157 °C,O=C(OCc1ccccc1)c1ccc(OCc2ccc(COc3ccc(C(=O)OCc4ccccc4)cc3)cc2)cc1
19,190 °C,CCCCCCCCCCCCCCCCCCOC(=O)Nc1ccc(NC(=O)NS(=O)(=O)c2ccc(OC)cc2)cc1
20,252 °C,Cc1c(C(=O)Nc2ccc(N3CCC(N4CCCCC4)CC3)c(C#N)c2)cnn1-c1ccc(Cl)cc1
21,140 to 150 °C,Cc1cccc(Cl)c1Nc1nc2ccc(-c3c(C)cccc3C)cc2n2cncc12
22,121 to 123 °C,COC(=O)CCCc1cc2cc(Cl)ccc2n1S(=O)(=O)c1ccc2ncsc2c1
23,127 to 128 °C,O=C1CCCCc2cc(OCc3ccccc3)c(O)cc21
24,< 48 °C,COc1cccc(NC(=O)C(C)(C)C)c1C(C)=O

row,melting point,Structure (SMILES)
1,171 °C,FC(F)(F)c1cccc(-c2cc(C(F)(F)F)n3ncc(-c4cccnc4)c3n2)c1
2,107 to 108 °C,FC(F)(F)c1ccc(-c2nnc(-c3cccc(C4OCCO4)c3)o2)cc1
3,119 to 121 °C,O=c1c2ccccc2cc(-c2ccc(F)cc2)n1CCF
4,> 250 °C,O=C1N=NC(=O)c2c1[nH]c1cc(Cl)ccc21
5,361 to 363 °C,NC(=O)c1nc(-c2cccc(O)c2)nc2c1[nH]c(=O)n2C1CCOCC1
6,119 to 120 °C,COc1ccc(Br)c(C=O)c1OC(C)=O
7,148 to 150 °C,COc1cc2oc(=O)cc(CN3CCC(OC)CC3)c2cc1OC
8,> 300 °C,O=C(Nc1ccccc1)Nc1nc(C=C2SC(=O)NC2=O)cs1
9,190 to 191 °C,COCCNC(=O)c1ccc(C(=O)NS(=O)(=O)c2ccccc2)cn1
10,55 to 58 °C,CC(=O)OCCc1ccc2c(c1)C(=O)c1ccccc1CO2
11,191 °C,CN1C=C(C(=O)Nc2ccccc2)C(C(F)(F)F)N1CO (stereo unspecified)
12,70 to 72 °C,CC(C)(C)OC(=O)Nc1ccsc1CC(=O)O
13,169 to 170 °C,Clc1ccc2c(-n3cncn3)ccnc2c1
14,81 to 82.5 °C,OCC(O)COc1ccccc1OCc1ccccc1 (stereo unspecified)
15,67 to 68.5 °C,CCOC(=O)c1c(C(C)C)c[nH]c1C
16,104 to 106 °C,Cn1c2c(ccc1=O)C(NCCc1ccc(C(F)(F)F)cc1)CCC2 (stereo unspecified)
17,> 150 °C,Nc1ccc2ncnc(Nc3cccc(Cl)c3)c2c1
18,144 to 145 °C,N#CCCNC(=O)C1=CC(CF)(CF)Oc2ccc(C(F)(F)C(F)(F)F)cc21
19,149 to 151 °C,COC(=O)CCC(=O)c1ccc(-c2ccc(C#N)cc2)cc1
20,218 to 220 °C,Oc1ccc2c(c1)C=C(n1ccnc1)CC2
21,48 to 49 °C,C#CCN1CCC(C(C)(C)C)CC1
22,43 to 44 °C,COc1ccc2c(N(C)CCN3CCOCC3)noc2c1
23,142 to 143 °C,O=C(O)c1cccc(-c2cccc(OCCc3cccc(F)c3)n2)c1
24,77 to 79 °C,CCOc1cc(C(=O)OC)on1

row,melting point,Structure (SMILES)
1,32 °C,CCC[C@H]1CC[C@H](c2ccc(OCC)c(C=O)c2)CC1
2,136 to 137 °C,CCOC(=O)CC(=O)c1cc(O)c(O)c([N+](=O)[O-])c1
3,183 to 186 °C,N#CSc1nc(I)ncc1Cl
4,60 to 61 °C,Nc1c(Cl)cc(C(O)CNCCCCCC(=O)OCCc2cccc3ccccc23)cc1Cl (stereo unspecified)
5,156 to 157 °C,O=C(Nc1ccc(CC2CCN(S(=O)(=O)N3CCCCC3)CC2)cc1)C(F)(F)F
6,159 °C,CC(C)(C)OC(=O)CS(=O)c1cccc(-c2nc(=O)c3ccccc3s2)n1 (stereo unspecified)
7,55 to 56 °C,COC(=O)c1cc(CBr)ccc1[N+](=O)[O-]
8,66 to 70 °C,CC(C)OCCC(=O)C=P(c1ccccc1)(c1ccccc1)c1ccccc1
9,84 to 86 °C,CCCCCCCCCCCc1cc2ccc(C(=O)OCC)cc2[nH]1
10,275 to 276 °C,O=c1cc(-c2ccc(O)c(F)c2)oc2ccccc12
11,167 to 168 °C,C#CCOc1ccc2c(c1)c(-c1ccc(C(C)C)cc1)nc(=O)n2Cc1cccc([N+](=O)[O-])c1
12,145 °C,CC(=O)c1ccc(S(=O)(=O)NCc2ccccc2-c2ccccc2C(=O)NCCc2ccccc2)cc1
13,78 to 80 °C,C=CCSc1ccc(Oc2ccccc2C)nn1
14,265 to 267 °C,CN1CCN(C2=Nc3ccccc3S(=O)(=O)N2)CC1
15,195 to 197 °C,O=C1CCCN1c1nc(-n2ccnc2)c(I)c(C(F)(F)F)n1
16,178 °C,CC(C)(C)OC(=O)N1CCCC[C@H]1C(OC(=O)Nc1ccc2[nH]ncc2c1)c1cccc(C(=O)O)c1 (stereo partly specified)
17,109 to 111 °C,O=C(CCC(=O)c1ccccc1)NC1CCCCC1
18,134 to 135 °C,COc1cc2c(cc1O)CCN(Cc1ccccc1)C2
19,177 to 179 °C,CCC(=O)N1CCC(NC(=O)NC2CCCCC2)CC1
20,158 to 160 °C,COc1ccc2c(c1)C(c1ccncc1)=Nc1cc(Cl)ccc1O2
21,74 °C,ClC(Cl)=CCOc1cc(Cl)c(OCc2ccncc2)c(Cl)c1
22,61.5 to 62.5 °C,CCCCc1c(C=O)ccc2c(OC)cccc12
23,124 to 126 °C,Cc1cc(S(=O)(=O)NCc2ccccc2)c2c(C)ccc(C(C)C)cc1-2
24,104 °C,O=C1c2c(n3c4c(cccc24)OCC3c2ccccc2)CCC1(Cl)Cl (stereo unspecified)

row,Structure (SMILES),melting point
1,CNC(=O)Nc1ccc2c(c1)C(CN1CCC(n3ccc4cc(Cl)ccc43)CC1)CC2 (stereo unspecified),193 to 195 °C
2,NC(=O)CCN1CCC(C(O)(c2ccc(F)cc2)c2ccc(F)cc2)CC1,136 to 137 °C
3,CCc1c2c(nc3cc(F)c(F)cc13)-c1cc3c(c(=O)n1C2)COC(=O)CC3(O)CC (stereo unspecified),> 275 °C
4,Nc1ccc(N2CCN(Cc3ccccc3)CC2)cc1,137 to 138 °C
5,CC1(C)N=C(c2ccccc2Cl)c2cc([N+](=O)[O-])ccc2N(CCO)C1=O,192 to 194 °C
